In patent US20250340886A1, “INTRACELLULAR KINASE ASSOCIATED WITH RESISTANCE AGAINST ANTI-TUMOUR IMMUNE RESPONSES, AND USES THEREOF” (iOmx Therapeutics AG, priority 2017, published 2025):
Like-named read-outs stand apart in the source and are kept apart here.

Legend:
SIK1 = SIK1 (Homo sapiens (Human), UniProt P57059); assay: radiometric protein kinase assay (33PanQinase Activity Assay, ProQinase Free Choice Kinase Assay); assay type: biochemical; conditions: read-out: SIK1 IC50 rank
SIK2 = SIK2 (Homo sapiens (Human), UniProt Q9H0K1); assay: as above; assay type: biochemical; conditions: ATP 1.0 uM, read-out: SIK2 IC50 rank
SIK3 = SIK3 (Homo sapiens (Human), UniProt Q9Y2K2); assay: as above; assay type: biochemical; conditions: read-out: SIK3 IC50 rank
SRC (GST-HIS-tag) = SRC (GST-HIS-tag) (Homo sapiens (Human), UniProt P12931); assay: as above; assay type: biochemical; conditions: indicative IC50, Table 4; ATP 0.3 uM; read-out: SRC IC50 rank
ABL1 wt = ABL1 wt (Homo sapiens (Human), UniProt P00519); assay: as above; assay type: biochemical; conditions: indicative IC50, Table 4; ATP 0.3 uM; read-out: ABL1 IC50 rank
PANC-1-luc cells = assay: luciferase-based T cell-mediated killing assay of siRNA-transfected PANC-1-luc cells; set-up: species or system human; conditions: absence of T cells (viability setting)
Excerpt: FIG. 2: Luciferase-based cytotoxicity assay for the assessment of T cell-mediated killing of siRNA transfected PANC-1-luc cells.
The inventors describe herein their surprising finding that SIK3 is a gene involved in tumour cell resistance against a cell-mediated immune response. Such role of SIK3 was first identified by the inventors using a high-throughput screening approach—to identify novel genes involved in mechanisms of tumour resistance towards T cell attack—as adapted and expanded from the screening approach developed and described by Khandelwal et al, 2015 (EMBO Mol Med 7:450). Briefly, using a siRNA library, 2514 genes were individually knocked-down in HLA-A2.1+ luciferase-expressing PANC1 cells (PANC1-luc), a pancreatic adenocarcinoma (PDAC) tumour cell line. Each gene's siRNA-transfected PANC1-luc tumour cells were then co-cultured with magnetically purified CD8+ T cells from an HLA-A2.1+ PDAC-derived tumour infiltrating lymphocyte culture (TIL #1). The impact of siRNA-mediated gene knockdown on TIL-mediated killing of tumour cells was measured using a luciferase-based cytotoxicity assay (cytotoxicity setting). In order to exclude those genes whose knockdown intrinsically affects cell viability, complementary screening was performed without the addition of TIL #1 (viability setting). False positive genes were further excluded using a luciferase-independent viability screen.
The present invention is based on the dramatic impact that inhibition of SIK3 of tumour cells determines a reduction of tumour cell survival after co-culture with a cell-mediated immune response. […]
The PANC1-luc cell line was constructed as follows: PANC-1 cells were acquired from the American Type Cell Culture (ATCC). […] After lysis, luciferase assay buffer was added and immediately the luciferase intensity was measured by using the TECAN-Spark microplate reader.

[1] = indicative IC50, Table 2A, ATP 3.0 uM
[2] = indicative IC50, Table 2A, ATP 1.0 uM
[3] = indicative IC50, Table 4, ATP 3.0 uM
[4] = indicative IC50, Table 4, ATP 1.0 uM

Chain of SIK2 (Q9H0K1 whole entry): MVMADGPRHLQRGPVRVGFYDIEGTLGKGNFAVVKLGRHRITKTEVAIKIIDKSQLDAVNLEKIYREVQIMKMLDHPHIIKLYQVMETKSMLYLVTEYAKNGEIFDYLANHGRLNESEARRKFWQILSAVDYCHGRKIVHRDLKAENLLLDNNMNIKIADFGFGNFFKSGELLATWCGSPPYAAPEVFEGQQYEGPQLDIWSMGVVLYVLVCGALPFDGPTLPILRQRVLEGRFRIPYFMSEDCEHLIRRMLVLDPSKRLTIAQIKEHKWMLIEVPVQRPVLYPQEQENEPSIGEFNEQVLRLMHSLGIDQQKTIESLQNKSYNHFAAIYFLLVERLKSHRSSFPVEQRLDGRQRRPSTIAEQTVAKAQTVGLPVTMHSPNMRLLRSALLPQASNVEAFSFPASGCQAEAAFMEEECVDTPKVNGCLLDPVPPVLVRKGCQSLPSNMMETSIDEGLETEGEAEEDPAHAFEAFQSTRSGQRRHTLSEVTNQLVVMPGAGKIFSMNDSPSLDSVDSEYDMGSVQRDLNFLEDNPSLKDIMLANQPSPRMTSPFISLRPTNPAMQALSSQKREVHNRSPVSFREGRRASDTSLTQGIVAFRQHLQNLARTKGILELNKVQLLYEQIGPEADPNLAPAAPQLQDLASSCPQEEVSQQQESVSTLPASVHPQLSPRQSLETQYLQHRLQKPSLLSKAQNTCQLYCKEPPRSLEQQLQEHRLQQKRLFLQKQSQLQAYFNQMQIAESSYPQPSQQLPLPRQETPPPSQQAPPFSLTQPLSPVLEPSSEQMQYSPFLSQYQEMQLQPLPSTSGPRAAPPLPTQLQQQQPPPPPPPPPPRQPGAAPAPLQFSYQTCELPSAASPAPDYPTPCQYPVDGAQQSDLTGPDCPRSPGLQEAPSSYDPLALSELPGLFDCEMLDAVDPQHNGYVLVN
Chain of ABL1 wt (P00519 whole entry): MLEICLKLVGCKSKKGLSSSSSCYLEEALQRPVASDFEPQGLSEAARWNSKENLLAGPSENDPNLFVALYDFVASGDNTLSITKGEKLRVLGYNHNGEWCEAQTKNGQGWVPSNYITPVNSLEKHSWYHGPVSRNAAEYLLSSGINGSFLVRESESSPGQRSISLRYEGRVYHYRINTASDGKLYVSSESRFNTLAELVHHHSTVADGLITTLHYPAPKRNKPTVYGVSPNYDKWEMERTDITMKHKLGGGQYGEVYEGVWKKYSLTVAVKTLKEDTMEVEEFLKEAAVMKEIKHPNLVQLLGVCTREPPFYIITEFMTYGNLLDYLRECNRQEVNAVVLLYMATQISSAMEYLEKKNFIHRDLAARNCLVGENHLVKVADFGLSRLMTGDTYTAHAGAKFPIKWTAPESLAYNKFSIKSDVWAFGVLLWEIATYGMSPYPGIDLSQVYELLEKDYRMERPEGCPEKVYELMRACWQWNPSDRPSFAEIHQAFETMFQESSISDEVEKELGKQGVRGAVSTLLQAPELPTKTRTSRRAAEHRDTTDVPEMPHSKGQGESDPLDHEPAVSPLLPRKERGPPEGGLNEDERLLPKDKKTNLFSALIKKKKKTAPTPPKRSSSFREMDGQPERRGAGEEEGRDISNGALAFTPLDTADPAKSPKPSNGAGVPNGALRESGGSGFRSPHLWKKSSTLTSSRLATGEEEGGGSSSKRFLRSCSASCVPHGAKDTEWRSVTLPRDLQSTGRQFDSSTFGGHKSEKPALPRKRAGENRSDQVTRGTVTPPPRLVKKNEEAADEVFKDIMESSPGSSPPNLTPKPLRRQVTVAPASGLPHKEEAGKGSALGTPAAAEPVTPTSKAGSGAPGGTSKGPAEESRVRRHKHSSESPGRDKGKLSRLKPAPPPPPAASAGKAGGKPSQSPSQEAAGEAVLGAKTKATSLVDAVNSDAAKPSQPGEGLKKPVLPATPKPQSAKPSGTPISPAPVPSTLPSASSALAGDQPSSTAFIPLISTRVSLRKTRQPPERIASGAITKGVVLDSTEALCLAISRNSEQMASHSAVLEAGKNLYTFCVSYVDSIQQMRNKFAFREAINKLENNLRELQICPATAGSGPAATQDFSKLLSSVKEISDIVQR
Chain of SRC (GST-HIS-tag) (P12931 whole entry, looked up): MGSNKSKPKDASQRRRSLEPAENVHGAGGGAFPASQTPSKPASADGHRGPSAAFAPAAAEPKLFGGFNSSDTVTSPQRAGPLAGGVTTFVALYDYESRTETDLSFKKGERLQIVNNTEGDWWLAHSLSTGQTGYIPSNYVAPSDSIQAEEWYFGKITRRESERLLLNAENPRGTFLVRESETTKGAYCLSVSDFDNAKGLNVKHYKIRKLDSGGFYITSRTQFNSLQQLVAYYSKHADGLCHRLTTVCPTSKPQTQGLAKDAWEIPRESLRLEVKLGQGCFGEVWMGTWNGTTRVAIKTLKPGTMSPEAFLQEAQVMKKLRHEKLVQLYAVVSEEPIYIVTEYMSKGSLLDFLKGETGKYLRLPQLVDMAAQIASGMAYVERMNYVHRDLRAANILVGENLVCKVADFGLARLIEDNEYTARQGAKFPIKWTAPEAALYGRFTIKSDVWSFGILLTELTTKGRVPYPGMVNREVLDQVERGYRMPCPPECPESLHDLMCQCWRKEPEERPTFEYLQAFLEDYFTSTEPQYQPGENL
Chain of SIK1 (P57059 whole entry): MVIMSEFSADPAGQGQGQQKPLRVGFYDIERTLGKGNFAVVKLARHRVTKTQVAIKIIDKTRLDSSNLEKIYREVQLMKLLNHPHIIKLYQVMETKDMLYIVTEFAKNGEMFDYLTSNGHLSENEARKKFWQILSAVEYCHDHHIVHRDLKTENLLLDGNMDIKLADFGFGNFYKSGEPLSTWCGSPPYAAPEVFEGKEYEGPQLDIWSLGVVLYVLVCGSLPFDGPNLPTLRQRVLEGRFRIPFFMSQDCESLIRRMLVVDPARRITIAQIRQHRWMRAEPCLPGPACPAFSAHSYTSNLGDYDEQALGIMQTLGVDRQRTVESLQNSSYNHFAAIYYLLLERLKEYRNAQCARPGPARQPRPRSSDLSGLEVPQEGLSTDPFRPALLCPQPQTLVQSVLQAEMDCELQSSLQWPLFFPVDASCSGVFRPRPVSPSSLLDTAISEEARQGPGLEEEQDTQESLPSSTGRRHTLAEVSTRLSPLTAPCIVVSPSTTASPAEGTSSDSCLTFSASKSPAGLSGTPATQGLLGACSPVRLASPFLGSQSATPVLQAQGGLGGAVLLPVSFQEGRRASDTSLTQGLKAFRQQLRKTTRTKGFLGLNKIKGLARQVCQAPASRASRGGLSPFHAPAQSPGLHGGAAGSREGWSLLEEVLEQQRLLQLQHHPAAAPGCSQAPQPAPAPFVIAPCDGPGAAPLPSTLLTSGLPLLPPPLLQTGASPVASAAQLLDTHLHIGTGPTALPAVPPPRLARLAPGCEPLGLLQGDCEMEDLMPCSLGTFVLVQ
Chain of SIK3 (Q9Y2K2 whole entry): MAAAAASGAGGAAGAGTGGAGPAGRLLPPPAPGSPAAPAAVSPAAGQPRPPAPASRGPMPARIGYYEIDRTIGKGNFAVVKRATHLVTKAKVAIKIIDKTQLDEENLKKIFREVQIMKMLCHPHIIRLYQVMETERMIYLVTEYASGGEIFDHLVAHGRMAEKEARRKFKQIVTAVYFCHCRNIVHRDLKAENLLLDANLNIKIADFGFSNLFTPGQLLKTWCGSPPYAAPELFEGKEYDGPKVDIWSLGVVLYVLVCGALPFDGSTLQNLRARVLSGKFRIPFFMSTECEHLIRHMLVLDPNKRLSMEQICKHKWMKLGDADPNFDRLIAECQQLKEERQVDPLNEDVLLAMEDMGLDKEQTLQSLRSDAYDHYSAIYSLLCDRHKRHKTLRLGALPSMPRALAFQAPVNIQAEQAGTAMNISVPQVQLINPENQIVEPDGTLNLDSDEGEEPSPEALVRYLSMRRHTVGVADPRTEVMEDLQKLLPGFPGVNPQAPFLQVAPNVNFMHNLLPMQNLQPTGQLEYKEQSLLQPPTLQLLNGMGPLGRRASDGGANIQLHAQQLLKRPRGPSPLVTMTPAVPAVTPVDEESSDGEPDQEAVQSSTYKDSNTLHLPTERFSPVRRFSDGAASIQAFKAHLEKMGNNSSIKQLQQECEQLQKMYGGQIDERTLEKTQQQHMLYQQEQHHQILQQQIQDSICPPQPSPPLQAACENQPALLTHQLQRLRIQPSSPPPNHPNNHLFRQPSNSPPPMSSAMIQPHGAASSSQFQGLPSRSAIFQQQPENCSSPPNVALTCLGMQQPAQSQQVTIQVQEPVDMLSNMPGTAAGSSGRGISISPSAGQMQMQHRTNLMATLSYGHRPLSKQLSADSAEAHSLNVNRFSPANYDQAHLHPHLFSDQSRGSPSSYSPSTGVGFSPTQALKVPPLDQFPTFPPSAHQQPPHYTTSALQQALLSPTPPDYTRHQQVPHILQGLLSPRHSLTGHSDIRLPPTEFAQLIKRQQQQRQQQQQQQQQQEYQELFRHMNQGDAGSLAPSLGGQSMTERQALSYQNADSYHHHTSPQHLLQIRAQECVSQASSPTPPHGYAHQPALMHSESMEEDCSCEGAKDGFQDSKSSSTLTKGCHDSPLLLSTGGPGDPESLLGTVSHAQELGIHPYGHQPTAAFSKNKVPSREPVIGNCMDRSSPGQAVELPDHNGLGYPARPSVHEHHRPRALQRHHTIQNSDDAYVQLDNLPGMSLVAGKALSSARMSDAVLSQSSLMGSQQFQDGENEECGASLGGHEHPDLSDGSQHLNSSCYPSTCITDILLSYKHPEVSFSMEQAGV

| IC50 (SIK1; [1]) | IC50 (SIK2; indicative IC50, Table 2A) | IC50 (SIK3; [2]) | IC50 (SIK1; [3]) | IC50 (SRC (GST-HIS-tag)) | IC50 (ABL1 wt) | IC50 (SIK2; indicative IC50, Table 4) | IC50 (SIK3; [4]) | Compound | further results |
| --- | --- | --- | --- | --- | --- | --- | --- | --- | --- |
| < 0.1 µM | < 0.1 µM | < 0.1 µM |  |  |  |  |  | Cc1nc(Nc2ncc(C(=O)Nc3c(F)cccc3Cl)s2)cc(N2CCN(CCO)CC2)n1 [Compound A1, N-(2-chloro-6-fluorophenyl)-2-((6-(4-(2-hydroxyethyl)piperazin-1-yl)-2-methylpyrimidin-4-yl)amino)thiazole-5-carboxamide] |  |
| < 0.1 µM | < 0.1 µM | < 0.1 µM |  |  |  |  |  | Cc1nc(Nc2ncc(C(=O)Nc3c(F)cccc3F)s2)cc(N2CCN(CCO)CC2)n1 [Compound A2, N-(2,6-difluorophenyl)-2-((6-{4-(2-hydroxyethyl)piperazin-1-yl)-2-methylpyrimidin-4-yl)amino)thiazole-5-carboxamide] |  |
| < 0.1 µM | < 0.1 µM | < 0.1 µM |  |  |  |  |  | Cc1nc(Nc2ncc(C(=O)Nc3c(F)cccc3Br)s2)cc(N2CCN(CCO)CC2)n1 [Compound A3, N-(2-bromo-6-fluorophenyl)-2-((6-(4-(2-hydroxyethyl)piperazin-1-yl)-2-methylpyrimidin-4-yl)amino)thiazole-5-carboxamide] |  |
| > 1 µM | > 0.1 µM | > 1 µM |  |  |  |  |  | C#Cc1cccc(NC(=O)c2cnc(Nc3cc(N4CCN(CCO)CC4)nc(C)n3)s2)c1 [Compound A4, N-(3-ethynylphenyl)-2-((6-(4-(2-hydroxyethyl)piperazin-1-yl)-2-methylpyrimidin-4-yl)amino)thiazole-5-carboxamide] |  |
| > 0.1 µM | > 0.1 µM | > 1 µM |  |  |  |  |  | Cc1nc(Nc2ncc(C(=O)Nc3ccc(F)cc3)s2)cc(N2CCN(CCO)CC2)n1 [Compound A5, N-(4-fluorophenyl)-2-((6-(4-(2-hydroxyethyl)piperazin-1-yl)-2-methylpyrimidin-4-yl)amino)thiazole-5-carboxamide] |  |
| < 0.1 µM | > 0.1 µM | > 0.5 µM |  |  |  |  |  | Cc1nc(Nc2ncc(C(=O)Nc3ccc(Br)cc3F)s2)cc(N2CCN(CCO)CC2)n1 [Compound A7, N-(4-bromo-6-fluorophenyl)-2-((6-(4-(2-hydroxyethyl)piperazin-1-yl)-2-methylpyrimidin-4-yl)amino)thiazole-5-carboxamide] |  |
| < 0.1 µM | < 0.1 µM | < 0.1 µM |  |  |  |  |  | Cc1nc(Nc2ncc(C(=O)Nc3ccccc3C)s2)cc(N2CCN(CCO)CC2)n1 [Compound A9, 2-((6-(4-(2-hydroxyethyl)piperazin-1-yl)-2-methylpyrimidin-4-yl)amino)-N-(o-tolyl)thiazole-5-carboxamide] |  |
| < 0.1 µM | < 0.1 µM | > 0.1 µM |  |  |  |  |  | Cc1nc(Nc2ncc(C(=O)Nc3ccccc3Cl)s2)cc(N2CCN(CCO)CC2)n1 [Compound A10, N-(2-chlorophenyl)-2-((6-(4-(2-hydroxyethyl)piperazin-1-yl)-2-methylpyrimidin-4-yl)amino)thiazole-5-carboxamide] |  |
| < 0.1 µM | < 0.1 µM | < 0.1 µM |  |  |  |  |  | Cc1nc(Nc2ncc(C(=O)Nc3c(C)cccc3C)s2)cc(N2CCN(CCO)CC2)n1 [Compound A12, N-(2,6-dimethylphenyl)-2-((6-(4-(2-hydroxyethyl)piperazin-1-yl)-2-methylpyrimidin-4-yl)amino)thiazole-5-carboxamide] |  |
| < 0.1 µM | < 0.1 µM | < 0.1 µM |  |  |  |  |  | Cc1nc(Nc2ncc(C(=O)Nc3c(Cl)cccc3Cl)s2)cc(N2CCN(CCO)CC2)n1 [Compound A13, N-(2,6-dichlorophenyl)-2-((6-(4-(2-hydroxyethyl)piperazin-1-yl)-2-methylpyrimidin-4-yl)amino)thiazole-5-carboxamide] |  |
|  |  |  | < 0.1 µM | < 0.1 µM | < 0.1 µM | < 0.1 µM | < 0.1 µM | Cc1nc(Nc2ncc(C(=O)Nc3c(Cl)cccc3Br)s2)cc(N2CCN(CCO)CC2)n1 [Compound B1, N-(2-bromo-6-chlorophenyl)-2-((6-(4-(2-hydroxyethyl)piperazin-1-yl)-2-methylpyrimidin-4-yl)amino)thiazole-5-carboxamide] |  |
|  |  |  | < 0.1 µM | < 0.1 µM | < 0.1 µM | < 0.1 µM | > 0.1 µM | Cc1nc(Nc2ncc(C(=O)Nc3c(Br)cccc3Br)s2)cc(N2CCN(CCO)CC2)n1 [Compound B2, N-(2,6-dibromophenyl)-2-((6-(4-(2-hydroxyethyl)piperazin-1-yl)-2-methylpyrimidin-4-yl)amino)thiazole-5-carboxamide] |  |
|  |  |  | > 0.1 µM | < 0.1 µM | < 0.1 µM | > 0.1 µM | > 1 µM | COc1c(F)cccc1NC(=O)c1cnc(Nc2cc(N3CCN(CCO)CC3)nc(C)n2)s1 [Compound B4, N-(3-fluoro-2-methoxyphenyl)-2-((6-(4-(2-hydroxyethyl)piperazin-1-yl)-2-methylpyrimidin-4-yl)amino)thiazole-5-carboxamide] |  |
|  |  |  | < 0.1 µM | < 0.1 µM | < 0.1 µM | < 0.1 µM | < 0.1 µM | Cc1nc(Nc2ncc(C(=O)Nc3c(C)cccc3Cl)s2)cc(N2CCN(C)CC2)n1 [Compound B5, N-(2-chloro-6-methylphenyl)-2-((2-methyl-6-(4-methylpiperazin-1-yl)pyrimidin-4-yl)amino)thiazole-5-carboxamide] |  |
|  |  |  | < 0.1 µM | < 0.1 µM | < 0.1 µM | < 0.1 µM | < 0.1 µM | CC(=O)N1CCN(c2cc(Nc3ncc(C(=O)Nc4c(C)cccc4Cl)s3)nc(C)n2)CC1 [Compound B6, 2-((6-(4-acetylpiperazin-1-yl)-2-methylpyrimidin-4-yl)amino)-N-(2-chloro-6-methylphenyl)thiazole-5-carboxamide] |  |
|  |  |  | < 0.1 µM | < 0.1 µM | < 0.1 µM | < 0.1 µM | < 0.1 µM | Cc1nc(NCCO)cc(Nc2ncc(C(=O)Nc3c(C)cccc3Cl)s2)n1 [Compound B7, N-(2-chloro-6-methylphenyl)-2-((6-((2-hydroxyethyl)amino)-2-methylpyrimidin-4-yl)amino)thiazole-5-carboxamide] |  |
|  |  |  |  |  |  | > 0.5 µM |  | Cc1nc(Nc2ncc(C(=O)Nc3ccc(F)c(Cl)c3)s2)cc(N2CCN(CCO)CC2)n1 [Compound B9] | IC50 (SIK1): > 5 µM; IC50 (SIK3): > 5 µM |
|  |  |  |  |  |  |  |  | s1: SIK3 siRNA, sequence GCGCCAGGCUUUAUCUUAU, Dharmacon D-004779-01 (listed as RNA, chemistry not given here) | cell viability of tumour cells (PANC-1-luc cells): slight reduction of cell viability |
|  |  |  |  |  |  |  |  | s2: SIK3 siRNA, sequence GAACAGCGACGAUGCUUAU, Dharmacon D-004779-05 (listed as RNA, chemistry not given here) | cell viability of tumour cells (PANC-1-luc cells): slight reduction of cell viability |
|  |  |  |  |  |  |  |  | s3: SIK3 siRNA, sequence GCACUAACCUGCUUGGGUA, Dharmacon D-004779-06 (listed as RNA, chemistry not given here) | cell viability of tumour cells (PANC-1-luc cells): slight reduction of cell viability |
